According to patent US8691986B2, “Azetidine and piperidine compounds useful as PDE10 inhibitors” (Amgen Inc., priority 2012, dated 2014):

Columns and labels:
[1] = test system: rat MDR1 (mdr1a, P-gp); experiment: Transcellular transport in rat mdr1a-transfected LLC-PK1 cells; assay type: in vitro ADME; conditions: pH 7.4, mdr1a-LLC-PK1, 5 μM test compound
Method: Digoxin and mannitol were purchased from Sigma-Aldrich (St. Louis, Mo.). 3H-digoxin and 14C-mannitol were purchased from PerkinElmer Life and Analytical Sciences (Boston, Mass.). Transport buffer was prepared using Hank's balanced salt solution (HBSS) supplemented with 10 mM Hepes, pH 7.4 and 0.1% BSA (HHBSS, Invitrogen, Grand Island, N.Y., BSA, Bovine Serum Albumin, Calbiochem, La Jolla, Calif.).
Cultures were incubated at 37° C. in a humidified (95% relative humidity) atmosphere of 5% CO2/95% air. The parental cell line LLC-PK1 (porcine renal epithelial cells) was purchased from American Type Culture Collection (ATCC, Manassas, Va.). Human MDR1 and Sprague-Dawley rat mdra1 transfectants in LLC-PK1 were generated at Amgen (Thousand Oaks, Calif.). Cells were cultured in Medium 199 supplemented with 2 mM L-glutamine, penicillin (50 units/mL), streptomycin (50 μg/mL), and 10% (v/v) fetal bovine serum (all from Invitrogen) (Schinkel et al, 1995).
LLC-PK1, MDR1-LLC-PK1, and mdr1a-LLC-PK1 cell monolayers were seeded onto porous (1.0 μm) polycarbonate 96-well transwell membrane filters (Millipore Corp., Billerica, Mass.) and cultured for six days with one media replacement on day four prior to transwell experiments. Cells were washed once with warmed HHBS prior to transwell experiments. Experiments were initiated by replacing the buffer in each compartment with 0.15 mL of HBSS containing 0.1% BSA with and without 5 μM of test compound in triplicate wells. The plates were incubated for two hours at 37° C. in an EVO incubator with shaking. Aliquots (100 μl) from both donor and receiver chambers were transferred to 96 well plates or scintillation vials. Protein was precipitated by addition of 200 μL acetonitrile containing 0.1% formic acid and prazosin (25 ng/mL) as internal standard. After vortexing and centrifugation at 3000 rpm for 20 min, 150 μL supernatant samples were transferred to a new plate containing 50 μL water for LC-MS/MS analysis. Transcellular transport of 3H-Digoxin was used as a positive control for Pgp. Paracellular permeability of 14C-Mannitol was used to measure the integrity of the monolayer. Sample radioactivity was measured using a liquid scintillation counter (Packard Tri-Carb 2910TR, PerkinElmer).
The apparent permeability coefficient (Papp) of all tested agents was estimated from the slope of cumulative amount (dQ) of the agent vs. time (dt), and the equation: Papp=(dQ/dt)/(A*C0)
where dQ/dt is the penetration rate of the agent […], A is the surface area of the cell layer on the Transwell (0.11 cm2), and CO is the initial concentration of the test compound (μM).

[2] = molecular target: human PDE2A1 (Homo sapiens (Human), UniProt O00408); experiment: PDE2A inhibition, PDE IMAP TR-FRET assay; assay type: biochemical; conditions: FAM-cAMP substrate
Sequence of human PDE2A1 (O00408 other isoform, or with tags, fused parts or gaps): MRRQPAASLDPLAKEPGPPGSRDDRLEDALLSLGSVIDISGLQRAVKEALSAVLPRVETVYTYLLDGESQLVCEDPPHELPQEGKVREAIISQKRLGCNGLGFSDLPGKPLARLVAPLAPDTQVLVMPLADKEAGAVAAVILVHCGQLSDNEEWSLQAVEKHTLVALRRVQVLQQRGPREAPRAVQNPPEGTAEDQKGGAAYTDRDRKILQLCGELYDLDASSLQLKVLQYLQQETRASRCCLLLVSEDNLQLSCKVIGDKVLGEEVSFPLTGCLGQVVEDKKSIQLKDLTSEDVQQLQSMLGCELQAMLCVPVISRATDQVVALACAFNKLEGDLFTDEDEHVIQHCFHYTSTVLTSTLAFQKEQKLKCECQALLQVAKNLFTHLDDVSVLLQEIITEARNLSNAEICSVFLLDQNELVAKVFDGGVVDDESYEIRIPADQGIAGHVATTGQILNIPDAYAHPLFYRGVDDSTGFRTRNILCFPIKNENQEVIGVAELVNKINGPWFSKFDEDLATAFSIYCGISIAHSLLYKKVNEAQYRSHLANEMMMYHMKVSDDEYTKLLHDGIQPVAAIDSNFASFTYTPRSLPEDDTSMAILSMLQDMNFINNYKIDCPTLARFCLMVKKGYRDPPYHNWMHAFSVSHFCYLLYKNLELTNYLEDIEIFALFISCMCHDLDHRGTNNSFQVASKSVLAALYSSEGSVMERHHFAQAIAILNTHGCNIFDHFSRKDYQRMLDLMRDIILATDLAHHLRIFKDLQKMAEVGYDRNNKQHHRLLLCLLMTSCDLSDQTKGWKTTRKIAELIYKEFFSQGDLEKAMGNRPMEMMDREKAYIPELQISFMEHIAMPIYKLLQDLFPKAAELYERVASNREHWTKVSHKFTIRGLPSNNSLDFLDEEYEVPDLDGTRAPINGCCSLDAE
Method: Purified human PDE2A1 and PDE10A2 enzymes were obtained from BPS Bioscience (San Diego, Calif.). IMAP™ TR-FRET progressive binding system, FAM-cAMP substrate were from Molecular Devices (Sunnyvale, Calif.).
The PDE IMAP assay was conducted in a 384-well black Greiner polypropylene plate (Sigma, St. Louis, Mo.). PDE inhibitors were serial diluted in 100% DMSO and dispensed into assay plate at […] per well using Echo® Liquid Handling System from LABCYTE. Ten μL of PDE enzyme in IMAP reaction buffer (10 mM Tris-HCl, pH 7.2, 10 mM MgCl2, 0.05% NaN3, and 0.01% Tween-20) was added into the assay wells. The PDE enzyme concentration used was based on each lot of enzyme activity, to ensure enzyme reaction falls in a linear range under assay condition. 1.4 nM of PDE2 or […] PDE10 were used in the assay system. Enzyme was pre-incubated with inhibitors for 60 minutes at room temperature before addition of 10 uL of substrate addition, which results in 100 nM of FAM-cAMP in the reaction. Enzyme reaction was allowed to proceed at room temperature for 90 min, and the reaction is stopped by 55 μl addition of binding reagent according to manufacturer's recommendation. The mixture is further incubated at room temperature for additional 4 hours, and signal was read on an Envision multimode reader (PerkinElmer). Fluorescence signals were measured at 520 nm and 485 nm. The signal ratio at 520/485 nm corresponded to the generation of reaction product of AMP, and it was used in all data analysis. Values from DMSO-treated wells were normalized to POC=100, and no-enzyme wells were normalized to POC=0. IC50 values were determined by using the Genedata Screener V9.0.1. The curve fitting algorithm used for dose response data analysis in Genedata Screener is a custom implementation of a robust curve-fitting algorithm called ROUT (Robust regression with outlier detection) and uses a four-parameter logistical (4 PL) Hill model.

[3] = molecular target: PDE10 (Rattus norvegicus (Rat), UniProt Q9QYJ6); experiment: PDE10 ex vivo receptor occupancy (RO) screening in rat striatum; conditions: oral; for receptor occupancy at 3 mg/kg: 3 mpk, 4 h (footnote C); for receptor occupancy at 10 mg/kg: 10 mpk
Sequence of PDE10 (Q9QYJ6 whole entry): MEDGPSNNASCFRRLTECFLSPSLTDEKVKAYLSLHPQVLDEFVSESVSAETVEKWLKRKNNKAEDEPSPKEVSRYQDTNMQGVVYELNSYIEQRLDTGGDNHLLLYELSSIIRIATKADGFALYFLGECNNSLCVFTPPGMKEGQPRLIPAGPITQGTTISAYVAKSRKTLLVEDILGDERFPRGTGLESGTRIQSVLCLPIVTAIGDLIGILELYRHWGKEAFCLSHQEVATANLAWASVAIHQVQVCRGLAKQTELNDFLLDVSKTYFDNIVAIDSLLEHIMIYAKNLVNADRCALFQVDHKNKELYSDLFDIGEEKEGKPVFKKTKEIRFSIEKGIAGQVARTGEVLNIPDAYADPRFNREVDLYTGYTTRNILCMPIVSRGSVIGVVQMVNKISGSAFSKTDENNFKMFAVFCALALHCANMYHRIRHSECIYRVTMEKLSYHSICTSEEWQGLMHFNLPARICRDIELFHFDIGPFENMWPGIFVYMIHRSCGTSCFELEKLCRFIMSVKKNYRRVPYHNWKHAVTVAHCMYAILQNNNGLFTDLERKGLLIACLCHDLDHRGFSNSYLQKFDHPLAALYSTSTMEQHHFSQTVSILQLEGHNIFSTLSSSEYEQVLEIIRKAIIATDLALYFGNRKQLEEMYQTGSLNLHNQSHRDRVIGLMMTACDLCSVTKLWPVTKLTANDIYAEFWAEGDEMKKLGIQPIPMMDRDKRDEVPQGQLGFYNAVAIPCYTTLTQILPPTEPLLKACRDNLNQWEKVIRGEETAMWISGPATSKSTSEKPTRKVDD
Method: The ex vivo screening protocol was approved by Amgen's Institutional Animal Care and Use Committee (IACUC) and in accordance with the National Institutes of Health Guide for Care and Use of Laboratory Animals in facilities accredited by the Association for the Assessment and Accreditation of Laboratory Animal Care (AALAC).
PDE10 inhibitors were dissolved in 2% Hydroxypropylmethylcellulose (HPMC), 1% Tween-80, pH 2.2 with methanesulfonic acid. Male Sprague Dawley® rats weighing 180-225 g (4 per group) were dosed orally with either vehicle or PDE10 inhibitors (3 mg/kg or 10 mg/kg) and then returned to their home cage to allow for absorption of the compounds. After one hour (with 10 mg/kg PDE10 inhibitor) or four hours (with 3 mg/kg or 10 mg/kg PDE10 inhibitor) rats were sacrificed by CO2 inhalation. Blood was obtained by heart puncture and plasma was frozen and stored at −80° C. for exposure analysis. Brains were removed and immediately frozen in chilled methylbutane, and stored at −80° C. until cutting. Three coronal brain slices per brain containing the striatum were cut at […] using a cryostat and placed onto microscope slides, air-dried and stored at −20° C. For radioligand binding experiments, slides were thawed at room temperature and then incubated with 1 nM a tritium labeled tracer compound (insert citation) in binding buffer (150 mM Phosphate-buffered saline containing 2 mM MgCl2 and 100 mM DTT, pH 7.4) for 1 minute at 4° C. To assess non-specific binding, slides containing adjacent brain sections were incubated in the same solution with addition of […] of an unlabelled, structurally unrelated PDE10 antagonist. Afterwards slides were washed 3 times in ice-cold binding buffer, dipped into distilled water to remove buffer salts, and dried under a stream of cold air. Emission of beta particles from the sections was counted for 8 hours in a Beta Imager 2000 (Biospace, Paris, France) and digitized and analyzed using M3 Vision software (Biospace, Paris, France). Total binding radioactivity in the striatum was measured as cpm/mm^2 in hand-drawn regions of interest and averaged across the three sections per brain. Non-specific binding was subtracted to obtain specific binding values and percent occupancy was calculated by setting vehicle specific binding as 0% occupancy.

Row | Structure (SMILES) | efflux ratio at 2 h, 5 μM [1] | IC50 [2] [µM] | receptor occupancy at 3 mg/kg [3] [%] | receptor occupancy at 10 mg/kg ([3]; 1 h (footnote A)) [%] | receptor occupancy at 10 mg/kg ([3]; 4 h (footnote B)) [%]
1 | CNC(=O)c1ccc(-c2nccnc2C2CN(c3ncc4ccccc4n3)C2)cc1F [Example 6, 2-Fluoro-N-Methyl-4-(3-(1-(Quinazolin-2-Yl)Azetidin-3-Yl)Pyrazin-2-Yl)Benzamide] | 1.2 | 10 | 62.6 | 85.4 | –
2 | CNC(=O)c1ccc(-c2nccnc2C2CN(c3ncc4ccc(Cl)cc4n3)C2)cc1F [Example 10, 4-(3-(1-(7-Chloroquinazolin-2-Yl)Azetidin-3-Yl)Pyrazin-2-Yl)-2-Fluoro-N-Methylbenzamide] | 1.2 | 7.38 | 108 | 101 | –
3 | CNC(=O)c1ccc(-c2nccnc2C2CN(c3ccc4ccccc4n3)C2)cc1F [Example 7, 2-Fluoro-N-Methyl-4-(3-(1-(Quinolin-2-Yl)Azetidin-3-Yl) Pyrazin-2-Yl)Benzamide] | 3.1 | 10 | 110 | 93.2 | –
4 | CNC(=O)c1ccc(-c2nccnc2C2CN(c3ccc4ncc(Cl)cc4n3)C2)cc1F [Example 14, 4-(3-(1-(7-Chloro-1,5-Naphthyridin-2-Yl)Azetidin-3-Yl)Pyrazin-2-Yl)-2-Fluoro-N-Methylbenzamide] | 1.1 | 10 | 78.5 | – | –
5 | CNC(=O)c1ccc(-c2nccnc2C2CN(c3ccc4ccc(F)cc4n3)C2)cc1F [Example 8, 2-Fluoro-4-(3-(1-(7-Fluoroquinolin-2-Yl)Azetidin-3-Yl) Pyrazin-2-Yl)-N-Methylbenzamide] | 2.5 | 10 | 83.5 | 134 | –
6 | CNC(=O)c1ccc(-c2nccnc2C2CCN(c3ccc4ccc(Cl)cc4n3)CC2)cc1F [Example 1, 4-(3-(1-(7-Chloroquinolin-2-Yl)Piperidin-4-Yl)Pyrazin-2-Yl)-2-Fluoro-N-Methylbenzamide] | 2.3 | 10 | 58.8 | – | 79
7 | CNC(=O)c1ccc(-c2nccnc2C2CN(c3ncc4ccc(F)cc4n3)C2)cc1F [Example 9, 2-Fluoro-4-(3-(1-(7-Fluoroquinazolin-2-Yl)Azetidin-3-Yl)Pyrazin-2-Yl)-N-Methylbenzamide] | 2.7 | 10 | 61.8 | 123 | 87.1
8 | CNC(=O)c1ccc(-c2nccnc2C2CCN(c3ccc4ccccc4n3)CC2)cc1F [Example 3, 2-Fluoro-N-Methyl-4-(3-(1-(Quinolin-2-Yl)Piperidin-4-Yl)Pyrazin-2-Yl)Benzamide] | 2.1 | 10 | 97.4 | – | –
9 | CNC(=O)c1ccc(-c2nccnc2C2CN(c3ncc4cc(F)ccc4n3)C2)cc1F [Example 11, 2-Fluoro-4-(3-(1-(6-Fluoroquinazolin-2-Yl)Azetidin-3-Yl)Pyrazin-2-Yl)-N-Methylbenzamide] | 1.2 | 10 | 67.5 | – | 80
10 | CNC(=O)c1ccc(-c2nccnc2C2CCN(c3ccc4cccc(F)c4n3)CC2)cc1F [Example 5, 2-Fluoro-4-(3-(1-(8-Fluoroquinolin-2-Yl)Piperidin-4-Yl)Pyrazin-2-Yl)-N-Methylbenzamide] | 2.3 | 10 | 68.3 | – | –
11 | CNC(=O)c1ccc(-c2nccnc2C2CCN(c3ccc4cc(F)ccc4n3)CC2)cc1F [Example 4, 2-Fluoro-4-(3-(1-(6-Fluoroquinolin-2-Yl)Piperidin-4-Yl)Pyrazin-2-Yl)-N-Methylbenzamide] | 2.2 | 10 | 93.3 | – | –
12 | CNC(=O)c1ccc(-c2nccnc2C2CN(c3ccc4cc(F)ccc4n3)C2)cc1F [Example 13, 2-Fluoro-4-(3-(1-(6-Fluoroquinolin-2-Yl)Azetidin-3-Yl) Pyrazin-2-yl)-N-Methylbenzamide] | 2.7 | 10 | 77 | – | –
13 | CNC(=O)c1ccc(-c2nccnc2C2CN(c3ncc4cc(F)c(Cl)cc4n3)C2)cc1F [Example 12, 4-(3-(1-(7-Chloro-6-Fluoroquinazolin-2-Yl)Azetidin-3-Yl)Pyrazin-2-Yl)-2-Fluoro-N-Methylbenzamide] | 2.8 | 10 | 91.4 | – | –
14 | CNC(=O)c1ccc(-c2nccnc2C2CCN(c3ccc4ccc(F)cc4n3)CC2)cc1F [Example 2, 2-Fluoro-4-(3-(1-(7-Fluoroquinolin-2-Yl)Piperidin-4-Yl) Pyrazin-2-Yl)-N-Methylbenzamide] | 2.7 | 10 | – | – | 112
